Laboratory results published in the supplement of paper PMC10331698.
± gives the standard deviation of the averaged measurements.

Experiments:
Test in all cases: level (log10 ratio to DMSO vehicle control); higher = higher biomarker level / cell amount than vehicle control
[1] = compound: C=CC(=O)OCC(F)(F)C(F)(F)C(F)(F)C(F)(F)C(F)(F)C(F)(F)C(F)(F)C(F)F [1H,1H,9H-Perfluorononyl acrylate]; conditions: in DMSO
Procedure: (§1)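 BioMAP Diversity Plus panel of 12 human primary cell co-culture systems (3C, 4H, LPS, SAg, BT, BF4T, BE3C, CASM3C, HDF3CGF, KF3CT, MyoF, Mphg). Compounds were added 1 h before stimulation and left for 24 h (MyoF 48 h; BT 72 h for soluble read-outs or 6 d for IgG). Biomarkers were read by ELISA, cytotoxicity by SRB, PBMC viability and proliferation by Alamar Blue. Each well value was divided by the mean of 8 DMSO control wells on the same plate and log10 transformed; duplicate blinded samples were tested at 4 concentrations.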

[2] = compound: OCC(F)(F)C(F)(F)C(F)(F)C(F)(F)C(F)(F)C(F)(F)F [6:1 Fluorotelomer alcohol]; conditions: in DMSO
Procedure: as §1

[3] = compound: O=C(O)C(F)(F)C(F)(F)C(F)(F)C(F)(F)C(F)(F)C(F)(F)C(F)(F)F [Perfluorooctanoic acid]; conditions: in DMSO
Procedure: as §1

[4] = compound: O=C(O)C(F)(F)C(F)(F)C(=O)O [Tetrafluorosuccinic acid]; conditions: in DMSO
Procedure: as §1

[5] = compound: O=C(CC(=O)C(F)(F)C(F)(F)C(F)(F)F)c1cccs1 [(Perfluorobutyryl)-2-thenoylmethane]; conditions: in DMSO
Procedure: as §1

[6] = compound: O=S(=O)(O)CCC(F)(F)C(F)(F)C(F)(F)C(F)(F)F [4:2 Fluorotelomer sulfonic acid]; conditions: in DMSO
Procedure: as §1

[7] = compound: C=CC(=O)OCC(F)(F)C(F)(F)C(F)(F)C(F)(F)COC(=O)C=C [1H,1H,6H,6H-Perfluorohexane-1,6-diol diacrylate]; conditions: 6700 nM; in DMSO
Procedure: as §1

Test System	level (log10) ([1]; 6700 nM)	level (log10) ([1]; 20000 nM)	level (log10) ([1]; 60000 nM)	level (log10) ([2]; 6700 nM)	level (log10) ([2]; 20000 nM)	level (log10) ([2]; 60000 nM)	level (log10) ([3]; 6700 nM)	level (log10) ([3]; 20000 nM)	level (log10) ([3]; 60000 nM)	level (log10) ([4]; 6700 nM)	level (log10) ([4]; 20000 nM)	level (log10) ([4]; 60000 nM)	level (log10) ([5]; 6700 nM)	level (log10) ([5]; 20000 nM)	level (log10) ([6]; 6700 nM)	level (log10) ([6]; 20000 nM)	level (log10) ([6]; 60000 nM)	level (log10) [7]
LPS:CD62E/E-Selectin	-0.002 ± 0.027	0.0165 ± 0.026	-0.008	0.001 ± 0.018	-0.013 ± 0.011	-0.014 ± 0.0071	0.009 ± 0.017	-0.01 ± 0.02	0.029 ± 0.016	0.0155 ± 0.036	0.003 ± 0.011	0.0275 ± 0.013	-0.0755 ± 0.047	0.061 ± 0.016	0.027 ± 0.028	0.027 ± 0.041	0.0285 ± 0.066	-0.0155 ± 0.0035
3C:HLA-DR	-0.002 ± 0.0085	0.0155 ± 0.0021	-0.0055 ± 0.005	0.004 ± 0.011	-0.003 ± 0.0028	-0.0095 ± 0.0078	0.0035 ± 0.0092	-0.008 ± 0.028	0.0155 ± 0.043	0.0005 ± 0.025	-0.0075 ± 0.0021	-0.0045 ± 0.032	-0.093 ± 0.045	-0.511 ± 0.026	-0.019 ± 0.0028	-0.0095 ± 0.0078	-0.005 ± 0.028	-0.025 ± 0.011
LPS:CD142/Tissue Factor	0.019 ± 0.025	0.0415 ± 0.026	-0.015 ± 0.013	-0.0035 ± 0.03	0.0215 ± 0.011	0.0155 ± 0.016	0.0445 ± 0.056	0.008 ± 0.089	0.042 ± 0.017	-0.001 ± 0.047	-0.0155 ± 0.079	0.014 ± 0.037	-0.004 ± 0.093	0.323 ± 0.0028	-0.051 ± 0.014	-0.0105 ± 0.016	-0.0015 ± 0.016	-0.0415 ± 0.00071
BT:PBMC Cytotoxicity	-0.047 ± 0.0085	-0.1 ± 0.0085	-0.287 ± 0.1	0.017 ± 0.025	0.011 ± 0.037	-0.082 ± 0.03	-0.001 ± 0.028	0.0565 ± 0.013	0.105 ± 0.033	0.0305 ± 0.012	0.026 ± 0.0042	0.024 ± 0.014	0.0005 ± 0.025	-0.0515 ± 0.037	0.0075 ± 0.023	0 ± 0.0014	0.0435 ± 0.03	-0.186 ± 0.0042
SAg:Proliferation	-0.024 ± 0.0014	-0.166 ± 0.029	-0.58 ± 0.14	-0.0075 ± 0.005	-0.0455 ± 0.0035	-0.0325 ± 0.13	0.044 ± 0.0085	0.041	0.016 ± 0.025	0.017 ± 0.04	-0.0205 ± 0.032	0.049 ± 0.027	-0.298 ± 0.019	-0.585	-0.0615 ± 0.015	0.009 ± 0.054	-0.017 ± 0.041	-0.296 ± 0.063
LPS:sPGE2	-0.046 ± 0.0071	-0.123 ± 0.053	-0.15 ± 0.11	-0.0055 ± 0.028	0.004 ± 0.0099	0.005 ± 0.03	0.0065 ± 0.016	-0.067 ± 0.02	-0.159 ± 0.064	0.0125 ± 0.032	-0.002 ± 0.047	0.054 ± 0.031	-0.066 ± 0.052	0.0635 ± 0.0064	-0.035 ± 0.078	0.025 ± 0.064	0.026 ± 0.0028	-0.0195 ± 0.0064
BF4T:uPA	-0.0055 ± 0.023	-0.0075 ± 0.018	-0.002 ± 0.018	-0.0155 ± 0.0064	-0.011 ± 0.018	-0.023 ± 0.024	-0.0245 ± 0.023	-0.0315 ± 0.016	-0.0185 ± 0.013	-0.004 ± 0.0014	-0.0185 ± 0.0064	-0.0095 ± 0.0092	-0.0235 ± 0.00071	-0.0535 ± 0.047	-0.013 ± 0.02	-0.013 ± 0.0085	0.0105 ± 0.0078	-0.02 ± 0.035
LPS:CD69	-0.0345 ± 0.011	-0.062 ± 0.011	-0.102 ± 0.023	-0.017 ± 0.0042	-0.0135 ± 0.0064	-0.0085 ± 0.005	0.0445 ± 0.096	0.0475 ± 0.046	-0.025 ± 0.092	-0.0265 ± 0.0035	-0.0405 ± 0.0092	-0.029 ± 0.025	-0.132 ± 0.0014	-0.0555 ± 0.07	-0.0435 ± 0.052	-0.0565 ± 0.029	-0.058 ± 0.028	-0.052 ± 0.023
LPS:CXCL8/IL-8	-0.001 ± 0.047	0.0095 ± 0.023	-0.023 ± 0.028	0.002 ± 0.011	-0.007 ± 0.018	0.0235 ± 0.0021	0.0155 ± 0.021	0.033 ± 0.014	0.146 ± 0.057	-0.0065 ± 0.00071	-0.003 ± 0.016	0.009 ± 0.02	-0.0595 ± 0.032	-0.033 ± 0.047	-0.0015 ± 0.097	0.027 ± 0.054	0.111 ± 0.018	-0.0205 ± 0.028
4H:CD106/VCAM-1	-0.02 ± 0.0071	-0.023 ± 0.0028	-0.0425 ± 0.03	0.0035 ± 0.033	-0.0045 ± 0.049	0.0195 ± 0.0078	0.0045 ± 0.022	-0.001 ± 0.034	-0.0165 ± 0.039	0.029 ± 0.033	0.0065 ± 0.005	0.0485 ± 0.018	-0.009 ± 0.0071	-0.234 ± 0.04	-0.039 ± 0.037	0.014 ± 0.0057	-0.0035 ± 0.023	-0.057 ± 0.0057
BT:sTNF-alpha	-0.111 ± 0.039	-0.281 ± 0.065	-0.827 ± 0.71	0.0265 ± 0.084	-0.0265 ± 0.033	-0.33 ± 0.0042	0.0755 ± 0.044	0.097 ± 0.047	0.166 ± 0.11	-0.0875 ± 0.14	-0.076 ± 0.13	-0.0795 ± 0.054	-0.0385 ± 0.063	-0.354 ± 0.13	0.0815 ± 0.16	-0.063 ± 0.021	0.0095 ± 0.012	-0.698 ± 0.042
BF4T:Keratin 8/18	-0.022 ± 0.013	-0.007 ± 0.013	-0.0385 ± 0.037	-0.0085 ± 0.0092	-0.0045 ± 0.023	0.03 ± 0.05	-0.0045 ± 0.012	-0.0025 ± 0.0092	0.0025 ± 0.022	0.013 ± 0.018	-0.0115 ± 0.037	-0.0165 ± 0.03	-0.0735 ± 0.0035	-0.127 ± 0.016	0.0015 ± 0.005	-0.0195 ± 0.025	0.017 ± 0.024	0.0065 ± 0.029
BF4T:MMP-3	0.013 ± 0.013	-0.003 ± 0.045	0.021 ± 0.0085	-0.012 ± 0.018	-0.0195 ± 0.0064	-0.002 ± 0.021	-0.007 ± 0.018	0.007 ± 0.0028	0.023 ± 0.021	0.0285 ± 0.012	-0.008 ± 0.028	0.012 ± 0.0057	-0.0475 ± 0.026	-0.0985 ± 0.032	-0.031 ± 0.013	-0.0235 ± 0.018	0.0295 ± 0.069	0.085 ± 0.038
BE3C:IL-1alpha	-0.01 ± 0.0085	-0.021 ± 0.018	-0.03 ± 0.021	-0.019 ± 0.0014	0.008 ± 0.0014	-0.0155 ± 0.04	0.0075 ± 0.00071	-0.0035 ± 0.0035	0.0185 ± 0.016	0.019 ± 0.013	0.009 ± 0.02	0.0385 ± 0.012	-0.0165 ± 0.00071	-0.19 ± 0.005	-0.011 ± 0.0014	-0.011 ± 0.013	0.0045 ± 0.0092	-0.0735 ± 0.03
LPS:CD106/VCAM-1	-0.002 ± 0.011	-0.0365 ± 0.019	-0.0565 ± 0.0021	-0.033 ± 0.023	-0.041 ± 0.016	-0.023 ± 0.02	0.0085 ± 0.0021	-0.006 ± 0.013	-0.0165 ± 0.0035	-0.0245 ± 0.026	-0.007 ± 0.0057	0.002 ± 0.018	-0.0045 ± 0.011	-0.023 ± 0.031	-0.0065 ± 0.013	-0.006 ± 0.027	-0.0125 ± 0.059	-0.048 ± 0.0099
3C:Proliferation	-0.092 ± 0.031	-0.186 ± 0.021	-0.415 ± 0.013	-0.0285 ± 0.0092	-0.0325 ± 0.0064	-0.685 ± 0.77	-0.0155 ± 0.015	-0.003 ± 0.0099	-0.08 ± 0.02	-0.0155 ± 0.028	-0.01 ± 0.0014	-0.0265 ± 0.021	-0.276 ± 0.04	-0.891 ± 0.063	0.0045 ± 0.083	0.0155 ± 0.013	0.003 ± 0.0085	-0.307 ± 0.084
